Results from US20080107625A1, “Inhibitors of Hepatitis C Virus” (Bristol-Myers Squibb Company, priority 2006, published 2008).
pEC50, pIC50: −log10 of the molar value.

How the values were obtained:
[1] = test system: HCV replicon (Renilla luciferase reporter) in HUH-7 cells; assay: HCV replicon luciferase reporter assay; assay type: cell-based, HCV strain 1b; details: Huh-7, 96 h; 4 days
Source text: An HCV replicon whole cell system was established as described by Lohmann V, Korner F, Koch J, Herian U, Theilmann L, Bartenschlager R., Science 285(5424): 110-3 (1999). This system enabled us to evaluate the effects of our HCV Protease compounds on HCV RNA replication. Briefly, using the HCV strain 1b sequence described in the Lohmann paper (Assession number: AJ238799), an HCV cDNA was synthesized by Operon Technologies, Inc. (Alameda, Calif.), and the full-length replicon was then assembled in plasmid pGem9zf(+) (Promega, Madison, Wis.) using standard molecular biology techniques. […]
As a secondary assay, EC50 determinations from the replicon FRET assay were confirmed in a replicon luciferase reporter assay. […] Following 4 days in a 37° C./5% CO2 incubator, cells were analyzed for Renilla Luciferase activity using the Promega Dual-Glo Luciferase Assay System. […] Plates were read on a Packard TopCount NXT using a luminescence program.
The percentage inhibition was calculated using the formula below: • % control=average luciferase signal in experimental wells (+compound) • average luciferase signal in DMSO control wells (−compound)
The values were graphed and analyzed using XLfit to obtain the EC50 value.

human liver cathepsin B = biological target: T1, human liver cathepsin B (Homo sapiens, UniProt P07858); assay: Specificity assay, cathepsin B; assay type: biochemical
T1 construct: purchased Sigma or EMDbiosciences; host or cells: human liver (as named)
Description: The specificities of compounds of the present disclosure were determined against a variety of serine proteases: human neutrophil elastase (HNE), porcine pancreatic elastase (PPE) and human pancreatic chymotrypsin and one cysteine protease: human liver cathepsin B. In all cases, a 96-well plate format protocol using colorimetric p-nitroaniline (pNA) substrate or fluorometric Amino-Methyl-Coumarin (AMC) substrate, specific for each enzyme was used as described previously (PCT Patent Application No. WO 00/09543) with some modifications. All enzymes were purchased from Sigma or EMDbiosciences while the substrates were from Bachem.
Each pNA assay included a 2 h enzyme-inhibitor pre-incubation at room temperature followed by addition of substrate and hydrolysis to ˜15% conversion as measured on a Spectramax Pro microplate reader. The cathepsin B assay was initiated by adding substrate to a 10 min enzyme-inhibitor pre-incubation at room temperature, and the assay plate measured immediately using the Cytofluor Series 4000. Compound concentrations varied from 100 to 0.4 μM depending on their potency. […]
The percentage of inhibition was calculated using the formula: [1−((UVinh−UVblank)/(UVctl−UVblank))]×100 […]

CC(C)(C)OC(=O)N[C@H]1CN(C2CC2)CCC/C=C\C2C[C@@]2(C(=O)NS(=O)(=O)C2CC2)NC(=O)[C@@H]2C[C@@H](Oc3ccccn3)CN2C1=O (some centres unmarked) [Compound 1]
pEC50 [1]: 6.69
pIC50 (human liver cathepsin B): < 4.00
